Measurements reported in PubChem BioAssay (NCI).
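Five compound concentrations were applied to cells in 96-well plates for 48 hours; endpoints were derived by simple linear interpolation of the resulting dose-response curve. GI50 is the concentration that inhibits growth by half. The concentration for full growth arrest is given as TGI.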

Tests used:
Assay in all cases: NCI-60 cell line screen, 48 h
[1] = system: CAKI-1 renal
[2] = system: HOP-92 NSCLC
[3] = system: MOLT-4 leukemia
[4] = system: NCI-H226 lung
[5] = system: NCI-H23 lung
[6] = system: OVCAR-5 ovarian
[7] = system: SK-MEL-28 melanoma
[8] = system: SK-MEL-5 melanoma
[9] = system: SR leukemia
[10] = system: BT-549 breast

Structure (SMILES) | TGI [1] [µM] | TGI [2] [µM] | TGI [3] [µM] | TGI [4] [µM] | TGI [5] [µM] | TGI [6] [µM] | TGI [7] [µM] | TGI [8] [µM] | TGI [9] [µM] | GI50 [3] [µM] | TGI [10] [µM] | GI50 [10] [µM] | GI50 [1] [µM] | GI50 [2] [µM] | GI50 [4] [µM] | GI50 [5] [µM] | GI50 [6] [µM] | GI50 [7] [µM] | GI50 [8] [µM] | GI50 [9] [µM]
COC(=O)[C@]1(C)C(OC)=CC(=O)C2C1[C@H]1CCC[C@@H]21 (some centres undefined) | > 100 | > 100 | > 100 | > 100 | > 100 | > 100 | > 100 | > 100 | > 100 |  |  |  |  |  |  |  |  |  |  | 
COC(=O)C(CC(=O)c1c[nH]c2ccccc12)c1c[nH]c2ccccc12 (centres undefined) | 70.8 |  | 46.7 | 54.3 | 34 | 42.1 | 42.1 | 32.2 |  |  |  |  |  |  |  |  |  |  |  | 
S=P(N1CCCC1)(N1CC1)N1CC1 | > 100 |  | > 100 | > 100 | > 100 | > 100 | > 100 | > 100 | > 100 |  |  |  |  |  |  |  |  |  |  | 
CCOC(=O)c1c(-c2ccccc2)c(C(OC(c2ccccc2)c2c(-c3ccccc3)c(C(=O)OCC)n3ccccc23)c2ccccc2)c2ccccn12 (centres undefined) | > 100 |  | > 100 | > 100 | > 100 | > 100 | > 100 |  | > 100 |  |  |  |  |  |  |  |  |  |  | 
Nc1ccc(C(=O)CC2(O)C(=O)Nc3c(Cl)cc(Cl)cc32)cc1 (centres undefined) |  | > 100 | > 100 | > 100 | > 100 | > 100 | > 100 |  |  |  |  |  |  |  |  |  |  |  |  | 
COc1cc(C2c3cc4c(cc3[C@@H](OCCN(C)C)C3COC(=O)[C@H]23)OCO4)cc(OC)c1O (some centres undefined) | 1.33 | 1.55 | 0.0878 | 0.288 | 1.18 | 4.26 | 4.1 | 1.42 | 0.0831 | 0.0105 |  |  |  |  |  |  |  |  |  | 
Cc1ccc(/C=C2/NC(=S)SC2=O)cc1 | 51.1 | > 100 | > 100 | > 100 | 64.8 | > 100 | > 100 | > 100 |  |  | 54.2 |  |  |  |  |  |  |  |  | 
CN1C(=O)C2C=CC1C1CCC2N(C)C1=O (centres undefined) | > 100 | > 100 | > 100 | > 100 | > 100 | > 100 | > 100 | > 100 |  |  |  |  |  |  |  |  |  |  |  | 
O=c1cc(-c2ccccn2)[nH]c2cc(F)ccc12 |  | > 100 | > 100 | > 100 | > 100 | > 100 | > 100 | > 100 | > 100 |  |  |  |  |  |  |  |  |  |  | 
CC(=O)Nc1ccc(/C=C2/NC(=S)N(/C=C3\C(=O)Oc4ccccc4C3=O)C2=O)cc1 | > 100 | > 100 | > 100 | > 100 | > 100 | > 100 | > 100 | > 100 | > 100 |  |  |  |  |  |  |  |  |  |  | 
CC[C@H](Nc1nc(N)nc(C2CC2)c1C#N)c1nc2cccc(NCc3ccc(C(=O)NO)cc3)c2c(=O)n1-c1ccccc1 | 3.38 | 4.59 | 10.9 | 4.18 | 4.48 | 5.08 | 7.44 |  |  | 2.2 | 7.84 | 2.5 | 1.5 | 1.73 | 1.47 | 1.98 | 1.92 | 2.67 |  | 
Cc1c(Cl)cccc1NC(=O)/C(Cl)=C(\Cl)C(=O)O | 33.9 | 31.6 | 48.2 | 51.3 | 33.8 | 30.6 | 35.4 | 38.2 | 39.6 |  |  |  |  |  |  |  |  |  |  | 
CC(C)(C)n1cc(-c2ccnc(NCCCNS(=O)(=O)c3ccc(Br)cc3)c2)c(-c2cccc(O)c2)n1 | 5.06 | 3.43 | 6.74 | 5.59 | 3.72 | 3.5 | 3.36 | 2.87 |  | 2.3 | 2.98 | 1.5 | 2.16 | 1.56 | 2.31 | 1.83 | 1.87 | 1.79 | 1.52 | 
COC(=O)C1Cc2c([nH]c3ccccc23)C(c2ccccc2O)N1Cc1ccccc1 (centres undefined) | 34.5 | 43.5 | > 46.4 | > 46.4 | > 46.4 | > 46.4 | > 31.6 | > 46.4 | > 31.6 |  |  |  |  |  |  |  |  |  |  | 
COc1c(Sc2ccccc2)cc(Sc2ccccc2)c2cccnc12 | 70.7 |  | 48.1 |  | 62.1 | > 100 | > 100 | 30.5 |  |  |  |  |  |  |  |  |  |  |  | 
CC1=NOC(=O)C1N=Nc1ccc(Br)c(C)c1 (centres undefined) | 30.8 | 34.4 | 45.3 | 53.4 | 44.2 | 72 | 48.7 | 25.4 |  |  |  |  |  |  |  |  |  |  |  | 

Structure (SMILES) | TGI [1] [µM] | TGI [2] [µM] | TGI [3] [µM] | TGI [4] [µM] | TGI [5] [µM] | TGI [6] [µM] | TGI [7] [µM] | TGI [8] [µM] | TGI [9] [µM] | GI50 [3] [µM] | TGI [10] [µM] | GI50 [10] [µM] | GI50 [1] [µM] | GI50 [2] [µM] | GI50 [4] [µM] | GI50 [5] [µM] | GI50 [6] [µM] | GI50 [7] [µM] | GI50 [8] [µM] | GI50 [9] [µM]
COC(=O)[C@H]1N[C@@H](C(=O)OC)C23CCC[C@H]2CC[C@]1(C(OC)OC)C3 | > 100 | > 100 | > 100 | > 100 | > 100 | > 100 | > 100 | > 100 |  |  |  |  |  |  |  |  |  |  |  | 
COc1nc(C)cc2c(=O)n(-c3ccccc3)n(CC(O)CN3CCN(c4ccc(Cl)cc4)CC3)c(=O)c12 (centres undefined) | > 50 | 18.5 | > 50 | > 50 | > 50 | > 50 | > 50 | > 50 | > 50 | > 50 |  |  | > 50 | 7.08 | > 50 | > 50 | > 50 | > 50 | 32.6 | > 50
NC(=O)c1csc(C2CCC(CO)O2)n1 (centres undefined) | > 100 | > 100 | > 100 | > 100 | > 100 | > 100 | > 100 |  |  |  |  |  |  |  |  |  |  |  |  | 
CCOC(=O)Cc1csc(N=Nc2c(O)[nH]c3ccccc23)n1 | > 100 | > 100 | 73.1 | > 100 | > 100 | > 100 |  | 69.9 |  |  | > 100 |  |  |  |  |  |  |  |  | 
CS(=O)(=O)NNS(=O)(=O)c1ccc(Cl)cc1 | > 100 |  | > 100 | 96.3 | > 100 |  |  | > 100 | > 100 |  |  |  |  |  |  |  |  |  |  | 
O=C(CSc1nc(-c2ccccc2)c(-c2ccccc2)[nH]1)NNC(=S)Nc1ccccc1 | > 100 | > 100 | > 100 | > 100 | > 100 | > 100 | > 100 | > 100 | > 100 |  |  |  |  |  |  |  |  |  |  | 
CC(/C=C/NNC1=NC(c2ccccc2)C(c2ccccc2)=NN1)Sc1ccccc1N (centres undefined) | 28 | 22.8 | 34 | 24.3 | 29.7 | 31.3 | 21.3 | 23.6 | 21 |  |  |  |  |  |  |  |  |  |  | 
COC(=O)c1ccc(C(=O)OC)c2nc3cc(C)ccc3nc12 | > 100 | > 100 | > 100 | > 100 | > 100 | > 100 | > 100 | > 100 |  |  |  |  |  |  |  |  |  |  |  | 
COc1cc2c3c(ncc2c(OC)c1OC)-c1cc2c(cc1C3)OCO2 | > 100 | > 100 |  |  |  | > 100 | > 100 | > 100 | 17.6 |  |  |  | 42.5 | 61.1 |  |  | 58.5 | 39.1 | 54.1 | 0.25
COC(=O)[C@]1(C)CCC[C@@]2(C)[C@@H]3C[C@@H]4[C@H]5C[C@@]3(CC[C@@H]21)C[C@@]45C | 30 | 29.4 | 33.8 | 30.5 | 28.2 | 34.2 | 47.1 | 34.3 |  |  | 30.2 |  |  |  |  |  |  |  |  | 
CC1=C(/C=C/C(C)=C/C=C/C(C)=C/C=C/C=C(C)/C=C/C=C(C)/C=C/C2=C(C)C(=O)C(O)CC2(C)C)C(C)(C)CC(O)C1=O (centres undefined) | > 100 | > 100 | > 100 | > 100 | > 100 | > 100 | > 100 | > 100 | > 100 |  |  |  |  |  |  |  |  |  |  | 
O=C(O)Cc1ccccc1CCc1ccccc1Cl | > 100 | > 100 | > 100 | > 100 | > 100 | > 100 | > 100 | > 100 | > 100 |  |  |  |  |  |  |  |  |  |  | 
CCCCN(CC)c1ncnc2ccc(Br)cc12 | 29 | 33.8 | > 100 | 48 | 44.4 | 49.8 | 46.5 | 33.4 | 34.2 | 2.45 |  |  | 8.7 | 9.44 | 16.3 | 18.8 | 20.5 | 18.1 | 16.1 | 8.42
COc1ccc2ccccc2c1CN1CCOCCOCCN(Cc2c(OC)ccc3ccccc23)CCOCCOCC1 | > 100 | > 70 | > 90.1 | > 100 | > 100 | > 100 | > 65 | > 53.6 | > 100 |  |  |  |  |  |  |  |  |  |  | 
CC1(C)C(=O)C=CC2(C)C1CC(O)C1(C)C2CCC2(C)C(c3ccoc3)OC(=O)C3OC321 (centres undefined) | 31.4 | 38.5 | 27.2 | 33.3 | 28.6 | > 100 | 70.3 | 21.8 |  |  | 41.1 |  |  |  |  |  |  |  |  | 
Clc1ccc2c(c1)[nH]c1c2nc2sccn21 | > 100 | > 100 | > 100 | > 100 | > 100 | > 100 | > 100 | > 100 | > 100 |  |  |  |  |  |  |  |  |  |  | 
